Assay results from patent publication US9346823B2, “Detection and use of low molecular-weight modulators of the cold-menthol receptor TRPM8” (BASF SE, priority 2008, dated 2016).

target: T1, human receptor TRPM8 (Homo sapiens, UniProt Q7Z2W7); test: Assay on TRPM8 modulators: Ca2+-sensitive dye (Fluo-4) fluorescence in HEK293 cells stably transfected with human TRPM8; format: cell-based; settings: tetracycline-induced, Fluo-4AM, agonist mode, triplicate, test concentrations 0.1-200 μM
T1 construct: expressed in transfected cells
Protocol: In this connection, “standard conditions” is understood as meaning an activity test carried out with HEK293 cells which have been transformed with human TRPM8 and loaded with calcium-sensitive dye (such as e.g. Fluo-4AM, i.e. fluo-4-acetoxymethyl ester), subsequent addition of the test compound and detection of the color change, the experimental procedure taking place at 37° C.; as described e.g. example 3 below, or in Behrendt et al. (2004) loc. cit.).
As test cell system, HEK293 cell line stably transfected with the human TRPM8 DNA (cf. above plasmid pind-M8) are produced. Preference here is given to HEK293 which offers the option, via the introduced plasmid, of inducing the TRPM8 expression by means of tetracycline.
The agonization or antagonization of the receptor can be quantified by means of a Ca^2+-sensitive dye (e.g. FURA, Fluo-4 etc.). On their own, agonists bring about an increase in the Ca^2+ signal; antagonists bring about, in the presence of e.g. menthol, a reduction in the Ca^2+ signal (in each case detected via the dye Fluo-4, which has different fluorescent properties as the result of Ca^2+ ). • a) Test Procedure:
Firstly, a fresh culture of transformed HEK cells is prepared in a manner known per se in cell culture flasks. The test cells HEK293-TRPM8 are detached from the cell culture flasks by means of trypsin and 40 000 cells/well are sown out with 100 μl of medium in 96-well plates (Greiner # 655948 poly-D-lysine-coated). To induce the receptor TRPM8, tetracycline is added to the growth medium (DMEM/HG, 10% FCS tetracycline-free, 4 mM L-glutamine, 15 μg/ml blasticidin, 100 μg/ml hygromycin B, 1 μg/ml tetracycline). On the following day, the cells are loaded with Fluo-4AM dye and the test is carried out. For this, the procedure is as follows: • addition of in each case 100 μl/well of dye solution Ca-4 kit (RB 141, Molecular Devices) to in each case 100 μl of medium (DMEM/HG, 10% FCS tetracycline-free, 4 mM L-glutamine, 15 μg/ml blasticidin, 100 μg/ml hygromycin B, 1 μg/ml tetracycline) • incubation in the hatching cabinet, 30 minutes/37° C./5% CO2, 30 minutes/RT • preparation of the test substances (various concentrations in 200 μl of HBSS buffer), and also of positive controls (various concentrations of menthol, icilin and ionomycin in 200 μl of HBSS buffer) and negative controls (only 200 μl of HBSS buffer) • addition of the test substances in amounts of 50 μl/well and measurement of the change in fluorescence (e.g. in the assay instrument FLIPR, Molecular Devices or NovoStar, BMG) at 485 nm excitation, 520 nm emission, and evaluation of the effectiveness of the various substances/concentrations and determination of the EC50 values.
The test substances are used in the assay in triplicate in concentrations of 0.1-200 μM. Normally, the compounds are kept ready in DMSO solutions and are diluted down to a maximum DMSO concentration of 2% for the assay. • b) Test Result

T1 sequence (Q7Z2W7 whole entry): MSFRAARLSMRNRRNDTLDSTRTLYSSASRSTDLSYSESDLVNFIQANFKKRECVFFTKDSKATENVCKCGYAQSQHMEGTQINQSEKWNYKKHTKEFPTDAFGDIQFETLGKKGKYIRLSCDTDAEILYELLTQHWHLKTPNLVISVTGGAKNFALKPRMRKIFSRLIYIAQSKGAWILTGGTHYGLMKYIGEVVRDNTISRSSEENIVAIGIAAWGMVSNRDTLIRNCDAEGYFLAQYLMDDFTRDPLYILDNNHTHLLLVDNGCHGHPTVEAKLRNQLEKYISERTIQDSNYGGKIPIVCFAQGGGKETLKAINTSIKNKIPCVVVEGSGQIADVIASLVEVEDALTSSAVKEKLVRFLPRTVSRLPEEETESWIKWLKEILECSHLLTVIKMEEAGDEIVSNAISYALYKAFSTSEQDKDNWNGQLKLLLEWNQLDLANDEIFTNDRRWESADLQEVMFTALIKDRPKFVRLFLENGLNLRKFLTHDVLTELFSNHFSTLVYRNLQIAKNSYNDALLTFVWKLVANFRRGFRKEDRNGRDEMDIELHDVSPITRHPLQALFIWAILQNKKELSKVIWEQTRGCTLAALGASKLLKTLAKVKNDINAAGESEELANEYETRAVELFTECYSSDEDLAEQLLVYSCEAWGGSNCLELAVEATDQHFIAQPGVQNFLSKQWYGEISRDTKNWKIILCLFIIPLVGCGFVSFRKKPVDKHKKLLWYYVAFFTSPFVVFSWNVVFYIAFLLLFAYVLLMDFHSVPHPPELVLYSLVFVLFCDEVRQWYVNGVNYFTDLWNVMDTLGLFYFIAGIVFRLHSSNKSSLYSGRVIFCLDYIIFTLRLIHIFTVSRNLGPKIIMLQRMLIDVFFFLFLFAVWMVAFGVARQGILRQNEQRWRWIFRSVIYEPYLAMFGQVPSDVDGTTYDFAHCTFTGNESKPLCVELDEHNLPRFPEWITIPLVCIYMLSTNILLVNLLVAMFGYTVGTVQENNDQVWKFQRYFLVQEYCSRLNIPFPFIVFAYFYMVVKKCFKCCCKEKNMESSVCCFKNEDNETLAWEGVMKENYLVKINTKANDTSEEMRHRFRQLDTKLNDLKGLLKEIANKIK

In order of rising EC50:
1. CC1OC(=O)C2=C1N1CCc3ccccc3C1CC21SCCS1 (stereo not shown) [Compound 1]  0.4 µM
2. CC1(C)CC(=O)C2=C(C1)N1CCc3ccccc3C1CC21SCCS1 (stereo not shown) [Compound 2]  2 µM
3. COc1cnc(-c2ccccn2)nc1NC(C)C [Compound 3]  2 µM
4. O=C(COc1ccc2c(c1)OCO2)N(c1ccccc1)C1CCCCC1 [Compound 4]  2.5 µM
5. O=C(/C=C/c1ccc2c(c1)OCO2)N(c1ccccn1)C1CCCCC1 [Compound 5]  2.5 µM
6. O=C(Nc1ccc([N+](=O)[O-])cc1)Nc1ccccc1N1CCCCC1 [Compound 6]  3.5 µM
7. CCCCCCNC(=O)N(Cc1ccccc1)c1ccccc1 [Compound 7]  4 µM
8. Cc1[nH]c(SC(C)C(=O)Nc2cccc(C#N)c2)nc1Cc1ccccc1 (stereo not shown) [Compound 8]  5 µM
9. CC1(C)CC2CC(C)(CN2/C=N/c2sc3c(c2C#N)CCCCC3)C1 (stereo not shown) [Compound 10]  10 µM
10. CC(NCc1ccc(OC(F)F)cc1)c1ccc2c(c1)CCCC2 (stereo not shown) [Compound 13]  10 µM
11. COc1ccc(C(=O)Nc2sc3c(c2CN(C)C)CCCC3)cc1 [Compound 12]  10 µM
12. O=C(Nc1cccc2ccccc12)N(Cc1ccccc1)c1ccccc1 [Compound 11]  10 µM
13. O=C1CN(C(=O)c2ccccc2)c2ccc(C(F)(F)F)cc2N1 [Compound 9]  10 µM
14. CCOC(=O)C1CCN(Cc2cc(C(C)C)c(O)c(C(C)C)c2)CC1 [Compound 14]  20 µM
15. Cc1ccc2c(C)c(C(=O)N(Cc3ccco3)C3CCS(=O)(=O)C3)oc2c1 (stereo not shown) [Compound 15]  20 µM
16. C=CCn1c(C)cc(C(=O)CSc2nc(C)cc(C(F)(F)F)c2C#N)c1C [Compound 16]  25 µM
17. Cn1nc(C(F)(F)F)cc1Oc1cc(C2OCCO2)cc(Cl)n1 [Compound 17]  50 µM
18. C=C1C2(C(=O)NCCc3ccccc3)CCC(C2)C1(C)C (stereo not shown) [Compound 19]  100 µM
19. CC1=C/C(=N\NC(=O)CCN2CCN(c3ccccc3)CC2)CC1 [Compound 18]  100 µM
